Measured values published in PubChem BioAssay (NCI).
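Five concentrations, 48 hours, 96-well plates. TGI: concentration producing complete growth inhibition.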

Tests used:
Assay in all cases: NCI anticancer screen, dose series, 48 h
T-47D breast = tested on: T-47D breast
SK-OV-3 ovarian = tested on: SK-OV-3 ovarian
SF-539 CNS = tested on: SF-539 CNS
BT-549 breast = tested on: BT-549 breast
MALME-3M melanoma = tested on: MALME-3M melanoma
SNB-19 CNS = tested on: SNB-19 CNS
RPMI-8226 leukemia = tested on: RPMI-8226 leukemia
K-562 leukemia = tested on: K-562 leukemia
SK-MEL-2 melanoma = tested on: SK-MEL-2 melanoma
CCRF-CEM leukemia = tested on: CCRF-CEM leukemia
SK-MEL-5 melanoma = tested on: SK-MEL-5 melanoma
SN12C renal = tested on: SN12C renal
NCI-H23 lung = tested on: NCI-H23 lung
RXF 393 renal = tested on: RXF 393 renal
786-0 renal = tested on: 786-0 renal
SK-MEL-28 melanoma = tested on: SK-MEL-28 melanoma
MCF7 breast = tested on: MCF7 breast
A549 NSCLC = tested on: A549 NSCLC
DU-145 prostate = tested on: DU-145 prostate
NCI/ADR-RES ovarian = tested on: NCI/ADR-RES ovarian
HL-60(TB) leukemia = tested on: HL-60(TB) leukemia
HOP-92 NSCLC = tested on: HOP-92 NSCLC
HCT-15 colon = tested on: HCT-15 colon
A498 renal = tested on: A498 renal
SR leukemia = tested on: SR leukemia
HS 578T breast = tested on: HS 578T breast
CAKI-1 renal = tested on: CAKI-1 renal
TK-10 renal = tested on: TK-10 renal
UO-31 renal = tested on: UO-31 renal
UACC-257 melanoma = tested on: UACC-257 melanoma
HCT-116 colon = tested on: HCT-116 colon
MDA-MB-435 = tested on: MDA-MB-435
OVCAR-8 ovarian = tested on: OVCAR-8 ovarian
ACHN renal = tested on: ACHN renal
M14 melanoma = tested on: M14 melanoma
IGROV1 ovarian = tested on: IGROV1 ovarian
NCI-H226 lung = tested on: NCI-H226 lung
MDA-N = tested on: MDA-N
U251 CNS = tested on: U251 CNS
UACC-62 melanoma = tested on: UACC-62 melanoma
PC-3 prostate = tested on: PC-3 prostate
EKVX NSCLC = tested on: EKVX NSCLC
LOX IMVI melanoma = tested on: LOX IMVI melanoma
SF-268 CNS = tested on: SF-268 CNS
OVCAR-5 ovarian = tested on: OVCAR-5 ovarian
NCI-H522 lung = tested on: NCI-H522 lung
SNB-75 CNS = tested on: SNB-75 CNS
HOP-62 NSCLC = tested on: HOP-62 NSCLC
MDA-MB-231 breast = tested on: MDA-MB-231 breast
OVCAR-3 ovarian = tested on: OVCAR-3 ovarian
MOLT-4 leukemia = tested on: MOLT-4 leukemia
COLO 205 colon = tested on: COLO 205 colon
HT29 colon = tested on: HT29 colon
SF-295 CNS = tested on: SF-295 CNS
OVCAR-4 ovarian = tested on: OVCAR-4 ovarian

Measured: TGI

O=C(CCCN1CCC2(CC1)CC(=O)N(N1CCCCCC1)C2=O)c1ccccc1
> 100 µM: T-47D breast | SK-OV-3 ovarian | SF-539 CNS | BT-549 breast | MALME-3M melanoma | SNB-19 CNS | RPMI-8226 leukemia | K-562 leukemia | SK-MEL-2 melanoma | CCRF-CEM leukemia | SK-MEL-5 melanoma | SN12C renal | NCI-H23 lung | RXF 393 renal | 786-0 renal | SK-MEL-28 melanoma | MCF7 breast | A549 NSCLC | DU-145 prostate | NCI/ADR-RES ovarian | HL-60(TB) leukemia | HOP-92 NSCLC | HCT-15 colon | A498 renal | SR leukemia | HS 578T breast | CAKI-1 renal | TK-10 renal | UO-31 renal | UACC-257 melanoma | HCT-116 colon | MDA-MB-435 | OVCAR-8 ovarian | ACHN renal | M14 melanoma | IGROV1 ovarian | NCI-H226 lung | MDA-N | U251 CNS | UACC-62 melanoma | PC-3 prostate | EKVX NSCLC | LOX IMVI melanoma | SF-268 CNS | OVCAR-5 ovarian | NCI-H522 lung | SNB-75 CNS | HOP-62 NSCLC | MDA-MB-231 breast | OVCAR-3 ovarian | MOLT-4 leukemia | COLO 205 colon | HT29 colon | SF-295 CNS | OVCAR-4 ovarian
